Laboratory results as given in US4216142A, “Chromogenic substrates for the proteolytic enzymes” (Abbott Laboratories, priority 1978, dated 1980).

Tested on: human thrombin
Assay: kinetic analysis of chromogenic substrate hydrolysis by thrombin
Format: biochemical
Conditions: substrate 0.1 M in 0.17 M Tris buffer, pH 7.4; human thrombin 0.63 mg/ml; 37° C.; monitored at 405 nm
Protocol: The enzyme and the substrate are mixed in a buffer solution, and the reaction is followed spectrophotometrically for 2 to 30 minutes. The concentration of substrate [S] is varied, whereas the enzyme concentration [E] is kept constant. If the extinction (OD) (=optical density) is plotted in a coordinate system as a function of time, a curve is obtained the tangent of which (difference in extinction per minute, Δ OD/minute, from which the quantity in μmoles of pNA/min(v) can be calculated) at time zero corresponds to the initial course of the hydrolysis. By means of this tangent the initial rate of the hydrolysis can be determined.
If l/v is plotted against l/[S], a Lineweaver-Burk diagram is obtained from which vmax and Km can be determined graphically. Thus Km and kcat can be determined.

Km: 920 µM
Substance: sarcosylprolylarginine-p-nitrophenylanilide hydrochloride [Sar-Pro-Arg-pNA.2HCl]
kcat: 158 s⁻¹
